Results as given in US11155557B2, “Pyrazolopyrimidine compounds and methods of use thereof” (Genentech, Inc., priority 2016, dated 2021).
Where two headings read alike, the source gives them in different places.

Key:
[1] = target: isolated recombinant JAK1 kinase domain (Homo sapiens (Human), UniProt P23458); test: JAK1 enzyme assay (Caliper LabChip, Ki); format: biochemical
Description: The activity of the isolated recombinant JAK1 and JAK2 kinase domain was measured by monitoring phosphorylation of a peptide derived from JAK3 ([…] fluorescently labeled on the N-terminus with 5-carboxyfluorescein) using the Caliper LabChip R technology (Caliper Life Sciences, Hopkinton, Mass.).

[2] = test system: JAK1-dependent STAT6 phosphorylation in BEAS-2B human bronchial epithelial cells; test: JAK1 pathway assay: IL-13 stimulated STAT6 phosphorylation in BEAS-2B cells; format: cell-based; conditions: BEAS-2B cells, IL-13 stimulation, read-out: IL-13 p-STAT6 BEAS-2B IC50
How it was run: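 BEAS-2B bronchial epithelial cells plated one day before, run in complete growth medium. Phospho-STAT6 in lysates measured by MesoScale Discovery; EC50 reported.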

[3] = target: isolated recombinant JAK2 kinase domain (Homo sapiens (Human), UniProt O60674); test: JAK2 enzyme assay (Caliper LabChip, Ki)
Sequence of isolated recombinant JAK2 kinase domain (O60674 849-1124): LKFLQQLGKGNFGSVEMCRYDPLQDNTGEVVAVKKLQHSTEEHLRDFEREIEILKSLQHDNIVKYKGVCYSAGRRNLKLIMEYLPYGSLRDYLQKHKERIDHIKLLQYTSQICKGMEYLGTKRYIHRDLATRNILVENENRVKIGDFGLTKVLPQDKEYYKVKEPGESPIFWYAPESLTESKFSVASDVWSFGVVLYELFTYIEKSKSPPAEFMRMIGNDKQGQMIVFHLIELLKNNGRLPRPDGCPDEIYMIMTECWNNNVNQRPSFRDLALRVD

Sequence of isolated recombinant JAK1 kinase domain (P23458 875-1153): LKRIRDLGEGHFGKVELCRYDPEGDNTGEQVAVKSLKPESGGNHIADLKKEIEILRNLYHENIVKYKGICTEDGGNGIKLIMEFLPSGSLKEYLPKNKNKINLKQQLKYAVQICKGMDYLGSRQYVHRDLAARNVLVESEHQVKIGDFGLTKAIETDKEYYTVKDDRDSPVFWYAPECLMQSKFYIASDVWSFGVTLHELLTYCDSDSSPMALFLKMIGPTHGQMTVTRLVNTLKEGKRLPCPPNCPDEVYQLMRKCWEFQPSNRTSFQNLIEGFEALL

Ki [1]	Ki ([3]; read-out: JAK2 Ki)	Ki [3]	SMILES	IC50 ([2]; Homo sapiens, BEAS-2B)	IC50 [2]
5.57 nM	4.48 nM		Cn1cc(NC(=O)c2cnn3cccnc23)c(-c2cc3sc(C(=O)N4CCN(C(=O)OC(C)(C)C)CC4)cc3cc2OC(F)F)n1 [Example 20, tert-Butyl 4-(5-(difluoromethoxy)-6-(1-methyl-4-(pyrazolo[1,5-a]pyrimidine-3-carboxamido)-1H-pyrazol-3-yl)benzo[b]thiophene-2-carbonyl)piperazine-1-carboxylate]	186 nM	
0.3 nM	0.2 nM		COc1cc2[nH]ncc2cc1-c1n[nH]cc1NC(=O)c1cnn2cccnc12 [Example 30, N-[3-(6-methoxy-1H-indazol-5-yl)-1H-pyrazol-4-yl]pyrazolo[1,5-a]pyrimidine-3-carboxamide]		369 nM
1.32 nM	1.69 nM		O=C(Nc1cn(CCN2CCOCC2)nc1-c1cc2ccccc2cc1OC(F)F)c1cnn2cccnc12 [Example 85, N-[3-[3-(difluoromethoxy)-2-naphthyl]-1-(2-morpholinoethyl)pyrazol-4-yl]pyrazolo[1,5-a]pyrimidine-3-carboxamide]	34 nM	
0.22 nM	0.27 nM		CC1CSc2cc(-c3nn(CC(=O)N(C)C)cc3NC(=O)c3cnn4cccnc34)c(OC(F)F)cc2N1 (single isomer, unassigned) [Example 113, N-[3-[6-(difluoromethoxy)-3-methyl-3,4-dihydro-2H-1,4-benzothiazin-7-yl]-1-[2-(dimethylamino)-2-oxo-ethyl]pyrazol-4-yl]pyrazolo[1,5-a]pyrimidine-3-carboxamide]	22 nM	
0.12 nM	0.08 nM		Cn1cc(Cn2cc(NC(=O)c3cnn4cccnc34)c(-c3cc4c(cc3OC(F)F)NCCS4)n2)nn1 [Example 131, N-[3-[6-(difluoromethoxy)-3,4-dihydro-2H-1,4-benzothiazin-7-yl]-1-[(1-methyltriazol-4-yl)methyl]pyrazol-4-yl]pyrazolo[1,5-a]pyrimidine-3-carboxamide]	30 nM	
0.92 nM	2.1 nM		COc1cc2ccsc2cc1-c1nn(CC(=O)N2CCC(N3CCOCC3)CC2)cc1NC(=O)c1cnn2cccnc12 [Example 54, N-[3-(5-methoxybenzothiophen-6-yl)-1-[2-(4-morpholino-1-piperidyl)-2-oxo-ethyl]pyrazol-4-yl]pyrazolo[1,5-a]pyrimidine-3-carboxamide]	46 nM	
0.31 nM	0.14 nM		O=C(Nc1c[nH]nc1-c1cc2ccccc2cc1OC(F)F)c1cnn2cccnc12 [Example 1, N-(3-(3-(difluoromethoxy)naphthalen-2-yl)-1H-pyrazol-4-yl)pyrazolo[1,5-a]pyrimidine-3-carboxamide]	6 nM	
0.1 nM	0.1 nM		CNC(=O)Cn1cc(NC(=O)c2cnn3cccnc23)c(-c2cc3c(cc2OC(F)F)NCCS3)n1 [Example 117, N-[3-[6-(difluoromethoxy)-3,4-dihydro-2H-1,4-benzothiazin-7-yl]-1-[2-(methylamino)-2-oxo-ethyl]pyrazol-4-yl]pyrazolo[1,5-a]pyrimidine-3-carboxamide]	24 nM	
0.38 nM	0.97 nM		O=C(Nc1cn(CC(=O)N2CCC(CN3CCOCC3)CC2)nc1-c1cc2ccccc2cc1OC(F)F)c1cnn2cccnc12 [Example 3, N-(3-(3-(difluoromethoxy)naphthalen-2-yl)-1-(2-(4-(morpholinomethyl)piperidin-1-yl)-2-oxoethyl)-1H-pyrazol-4-yl)pyrazolo[1,5-a]pyrimidine-3-carboxamide]	8 nM	
0.34 nM	0.32 nM		Cn1cc(NC(=O)c2cnn3cccnc23)c(-c2cc3c(cc2OC(F)F)NC2(COC2)CO3)n1 [Example 147, N-(3-(6-(difluoromethoxy)-2,4-dihydrospiro[benzo[b][1,4]oxazine-3,3′-oxetan]-7-yl)-1-methyl-1H-pyrazol-4-yl)pyrazolo[1,5-a]pyrimidine-3-carboxamide]	14 nM	
0.07 nM	0.07 nM		Cn1cc(NC(=O)c2cnn3cccnc23)c(-c2cc3c(cc2OC(F)F)NC(=O)CS3)n1 [Example 90, N-[3-[6-(difluoromethoxy)-3-oxo-4H-1,4-benzothiazin-7-yl]-1-methyl-pyrazol-4-yl]pyrazolo[1,5-a]pyrimidine-3-carboxamide]	5 nM	
0.44 nM	0.94 nM		CN(C)C(=O)CN1CCN(C(=O)Cn2cc(NC(=O)c3cnn4cccnc34)c(-c3cc4ccccc4cc3OC(F)F)n2)CC1 [Example 69, N-[3-[3-(difluoromethoxy)-2-naphthyl]-1-[2-[4-[2-(dimethylamino)-2-oxo-ethyl]piperazin-1-yl]-2-oxo-ethyl]pyrazol-4-yl]pyrazolo[1,5-a]pyrimidine-3-carboxamide]	152 nM	
0.19 nM	0.12 nM		COc1cc2cc(C)sc2cc1-c1n[nH]cc1NC(=O)c1cnn2cccnc12 [Example 22, N-(3-(5-methoxy-2-methylbenzo[b]thiophen-6-yl)-1H-pyrazol-4-yl)pyrazolo[1,5-a]pyrimidine-3-carboxamide]	6 nM	
0.16 nM	0.11 nM		COc1cc2cnsc2cc1-c1n[nH]cc1NC(=O)c1cnn2cccnc12 [Example 32, N-[3-(5-methoxy-1,2-benzothiazol-6-yl)-1H-pyrazol-4-yl]pyrazolo[1,5-a]pyrimidine-3-carboxamide]	2 nM	
0.3 nM	0.49 nM		O=C(Nc1cn(CC(=O)N2CCC(N3CCOCC3)CC2)nc1-c1cc2sccc2cc1OC(F)F)c1cnn2cccnc12 [Example 66, N-[3-[5-(difluoromethoxy)benzothiophen-6-yl]-1-[2-(4-morpholino-1-piperidyl)-2-oxo-ethyl]pyrazol-4-yl]pyrazolo[1,5-a]pyrimidine-3-carboxamide]	21 nM	
0.05 nM	0.04 nM		O=C1CSc2cc(-c3n[nH]cc3NC(=O)c3cnn4cccnc34)c(OC(F)F)cc2N1 [Example 14, N-[3-[6-(difluoromethoxy)-3-oxo-3,4-dihydro-2H-1,4-benzothiazin-7-yl]-1H-pyrazol-4-yl]pyrazolo[1,5-a]pyrimidine-3-carboxamide]	27 nM	
0.17 nM	0.19 nM		CC1CNc2cc(OC(F)F)c(-c3nn(CC(=O)N(C)C)cc3NC(=O)c3cnn4cccnc34)cc2S1 (single isomer, unassigned) [Example 106, N-[3-[6-(difluoromethoxy)-2-methyl-3,4-dihydro-2H-1,4-benzothiazin-7-yl]-1-[2-(dimethylamino)-2-oxo-ethyl]pyrazol-4-yl]pyrazolo[1,5-a]pyrimidine-3-carboxamide]		27 nM
0.88 nM		1.62 nM	O=CN1CCN(C(=O)Cn2cc(NC(=O)c3cnn4cccnc34)c(-c3cc4ccccc4cc3OC(F)F)n2)CC1 [Example 68, N-[3-[3-(difluoromethoxy)-2-naphthyl]-1-[2-(4-formylpiperazin-1-yl)-2-oxo-ethyl]pyrazol-4-yl]pyrazolo[1,5-a]pyrimidine-3-carboxamide]	35 nM	
1.01 nM	1.93 nM		CNC(=O)Cn1cc(NC(=O)c2cnn3cccnc23)c(-c2cc3c(cc2OC(F)F)SCCO3)n1 [Example 119, N-[3-[6-(difluoromethoxy)-2,3-dihydro-1,4-benzoxathiin-7-yl]-1-[2-(methylamino)-2-oxo-ethyl]pyrazol-4-yl]pyrazolo[1,5-a]pyrimidine-3-carboxamide]	40 nM	
0.2 nM	0.19 nM		CC1CNc2cc(OC(F)F)c(-c3nn(CC(=O)N4CCCCC4)cc3NC(=O)c3cnn4cccnc34)cc2S1 (single isomer, unassigned) [Example 102, N-[3-[6-(difluoromethoxy)-2-methyl-3,4-dihydro-2H-1,4-benzothiazin-7-yl]-1-[2-oxo-2-(1-piperidyl)ethyl]pyrazol-4-yl]pyrazolo[1,5-a]pyrimidine-3-carboxamide]		12 nM
0.15 nM	0.08 nM		O=C(Nc1c[nH]nc1-c1cc2cnsc2cc1OC(F)F)c1cnn2cccnc12 [Example 153, N-(3-(6-(difluoromethoxy)benzo[d]isothiazol-5-yl)-1H-pyrazol-4-yl)pyrazolo[1,5-a]pyrimidine-3-carboxamide]	5 nM	
0.28 nM		0.25 nM	CC[C@H](O)Cn1cc(NC(=O)c2cnn3cccnc23)c(-c2cc3c(cc2OC(F)F)NCCO3)n1 [Example 122, N-[3-[6-(difluoromethoxy)-3,4-dihydro-2H-1,4-benzoxazin-7-yl]-1-[(2S)-2-hydroxybutyl]pyrazol-4-yl]pyrazolo[1,5-a]pyrimidine-3-carboxamide]	32 nM	
0.63 nM	2.54 nM		CN(C)C(=O)Cn1cc(NC(=O)c2cnn3cccnc23)c(-c2cc3c(cc2OC(F)F)SCCO3)n1 [Example 120, N-[3-[6-(difluoromethoxy)-2,3-dihydro-1,4-benzoxathiin-7-yl]-1-[2-(dimethylamino)-2-oxo-ethyl]pyrazol-4-yl]pyrazolo[1,5-a]pyrimidine-3-carboxamide]	46 nM	
0.19 nM	0.12 nM		O=C(Nc1cn(C2COC2)nc1-c1cc2c(cc1OC(F)F)NCCO2)c1cnn2cccnc12 [Example 84, N-[3-[6-(difluoromethoxy)-3,4-dihydro-2H-1,4-benzoxazin-7-yl]-1-(oxetan-3-yl)pyrazol-4-yl]pyrazolo[1,5-a]pyrimidine-3-carboxamide]	8 nM	
